Laboratory results: the supplement of paper PMC11208160

experiment: recombinant UMI read abundance after kanamycin selection (control-corrected) (log10(CPM+1)); higher = more efficient recombination; extreme values may be limits of the assay; sequences stand for … in AGTGCAGAGAAAATCGGCCAGTTTTCTCTGCCTGCAGTCCGCATGCCGTGGGACCCCTTGGGTTCTAACCTGTTGCCTAGATTTATGCAGCGGACTGCCTTTCTCCCAAAGTGATAAACCGG…AGGTTGGTTTCACT; site = the 11-nt donor
How it was run: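 In a pooled Escherichia coli screen for the IS621 bridge recombinase, donor and donor-binding-loop pairs were each placed with a 12-nt UMI on a plasmid bearing a promoterless kanamycin gene. This library was co-electroporated with a target plasmid encoding a fixed target and T7-inducible recombinase, and cells were plated either on IPTG (0.07 mM) plus kanamycin or without selection, in two replicates each. Recombinant UMIs were PCR-amplified across the donor–target junction and sequenced, and counts were converted to CPM, averaged over replicates, scaled by control-derived factors and reported as log10(CPM+1).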

Row | Sequence | recombinant UMI read abundance (log10)
1 | ATGTAGGCATGGACCGGTTTTCCCGGTAATCCGTATTTGGC (site ATGTAGGCTGT) | 2.51
2 | ATGTAGGCATGGACCGGTTTTCCCGGTAATCCGTATTTGGC (site ATGTAGGCTTC) | 1.15
3 | ATGTAGGCATGGACCGGTTTTCCCGGTAATCCGTATTTGGC (site ATGTAGTCTGC) | 1.06
4 | ATGTAGGCATGGACCGGTTTTCCCGGTAATCCGTATTTGGC (site ATGTATGCTGC) | 0.657
5 | ATGTAGGCATGGACCGGTTTTCCCGGTAATCCGTATTTGGC (site ATGTCGGCTGC) | 0.474
6 | ATGTAGGCATGGACCGGTTTTCCCGGTAATCCGTATTTGGC (site ATGTGGGCTGC) | 0.618
7 | ATGTAGGCATGGACCGGTTTTCCCGGTAATCCGTATTTGGC (site ATGTTGGCTGC) | 0.568
8 | ATGTAGGCATGGACCGGTTTTCCCGGTAATCCGTATTTGGC (site ATTTAGGCTGC) | 0.516
9 | ATGTAGGCATGGACCGGTTTTCCCGGTAATCCGTATTTGGC (site CTGTAGGCTGC) | 0.572
10 | ATGTAGGCATGGACCGGTTTTCCCGGTAATCCGTATTTGGC (site GTGTAGGCTGC) | 0.716
11 | ATGTAGGCATGGACCGGTTTTCCCGGTAATCCGTATTTGGC (site TTGTAGGCTGC) | 1.95
12 | ATGTAGGCATGGACCGGTTTTCCCGGTAATCCGTATTTGGG (site ATGTAGGCTAC) | 0.251
13 | ATGTAGGCATGGACCGGTTTTCCCGGTAATCCGTATTTGGG (site ATGTAGGCTCC) | 0.167
14 | ATGTAGGCATGGACCGGTTTTCCCGGTAATCCGTATTTGGG (site ATGTAGGCTGC) | 0
15 | ATGTAGGCATGGACCGGTTTTCCCGGTAATCCGTATTTGGG (site ATGTAGGCTTC) | 0.0205
16 | ATGTAGGCATGGACCGGTTTTCCCGGTAATCCGTATTTGTC (site ATGTAGGCTGA) | 2.72
17 | ATGTAGGCATGGACCGGTTTTCCCGGTAATCCGTATTTGTC (site ATGTAGGCTGC) | 1.62
18 | ATGTAGGCATGGACCGGTTTTCCCGGTAATCCGTATTTGTC (site ATGTAGGCTGG) | 2.52
19 | ATGTAGGCATGGACCGGTTTTCCCGGTAATCCGTATTTGTC (site ATGTAGGCTGT) | 1.91
20 | ATGTATACATGGACCGGTTTTCCCGGTAATCCGTATTTGCA (site ATGTATACTTG) | 2.39
21 | ATGTCGACATGGACCGGTTTTCCCGGTAATCCGTATTTGCG (site ATGTCGACTCG) | 0.954
22 | ATGTCGGCATGGACCGGTTTTCCCGGTAATCCGTATTTGGC (site ATGTAGGCTGC) | 0.445
23 | ATGTCGGCATGGACCGGTTTTCCCGGTAATCCGTATTTGGC (site ATGTCGGCTGC) | 2.2
24 | ATGTCGGCATGGACCGGTTTTCCCGGTAATCCGTATTTGGC (site ATGTGGGCTGC) | 0
25 | ATGTCGGCATGGACCGGTTTTCCCGGTAATCCGTATTTGGC (site ATGTTGGCTGC) | 0.0547

Row | Sequence | recombinant UMI read abundance (log10)
26 | ATGTTCACATGGACCGGTTTTCCCGGTAATCCGTATTTGGT (site ATGTTCACTAC) | 1.66
27 | ATGTTTGCATGGACCGGTTTTCCCGGTAATCCGTATTTGCG (site ATGTTTGCTCG) | 1.95
28 | ATGTTTGCATGGACCGGTTTTCCCGGTAATCCGTATTTGCT (site ATGTTTGCTAG) | 1.94
29 | ATTCCCTCATGGACCGGTTTTCCCGGTAATCCGTATTTGAC (site ATTCCCTCTGT) | 3.23
30 | ATTCCTACATGGACCGGTTTTCCCGGTAATCCGTATTTGAC (site ATTCCTACTGT) | 0.882
31 | ATTCGAGCATGGACCGGTTTTCCCGGTAATCCGTATTTGCA (site ATTCGAGCTTG) | 1.49
32 | ATTCGAGCATGGACCGGTTTTCCCGGTAATCCGTATTTGCA (site CTTCGAGCTTG) | 1.44
33 | ATTCGAGCATGGACCGGTTTTCCCGGTAATCCGTATTTGCA (site GTTCGAGCTTG) | 0.663
34 | ATTCGAGCATGGACCGGTTTTCCCGGTAATCCGTATTTGCA (site TTTCGAGCTTG) | 0.947
35 | ATTCGCCCATGGACCGGTTTTCCCGGTAATCCGTATTTGAA (site ATTCGCCCTTT) | 0.156
36 | ATTCGCTCATGGACCGGTTTTCCCGGTAATCCGTATTTGAA (site ATTCGCTCTTT) | 0.571
37 | ATTCTCTCATGGACCGGTTTTCCCGGTAATCCGTATTTGTA (site ATTCTCTCTTA) | 2.35
38 | ATTCTCTCATGGACCGGTTTTCCCGGTAATCCGTATTTGTA (site CTTCTCTCTTA) | 2.42
39 | ATTCTCTCATGGACCGGTTTTCCCGGTAATCCGTATTTGTA (site GTTCTCTCTTA) | 1.52
40 | ATTCTCTCATGGACCGGTTTTCCCGGTAATCCGTATTTGTA (site TTTCTCTCTTA) | 1.58
41 | ATTCTTACATGGACCGGTTTTCCCGGTAATCCGTATTTGAG (site ATTCTTACTCT) | 0.0416
42 | ATTGAAACATGGACCGGTTTTCCCGGTAATCCGTATTTGGC (site ATTGAAACTGC) | 2.15
43 | ATTGAAGCATGGACCGGTTTTCCCGGTAATCCGTATTTGCA (site ATTGAAGCTTG) | 2.44
44 | ATTGACACATGGACCGGTTTTCCCGGTAATCCGTATTTGAC (site ATTGACACTGT) | 2.61
45 | ATTGAGACATGGACCGGTTTTCCCGGTAATCCGTATTTGAT (site ATTGAGACTAA) | 0.37
46 | ATTGAGACATGGACCGGTTTTCCCGGTAATCCGTATTTGAT (site ATTGAGACTAC) | 0.217
47 | ATTGAGACATGGACCGGTTTTCCCGGTAATCCGTATTTGAT (site ATTGAGACTAG) | 0.528
48 | ATTGAGACATGGACCGGTTTTCCCGGTAATCCGTATTTGAT (site ATTGAGACTAT) | 2.01
49 | ATTGATACATGGACCGGTTTTCCCGGTAATCCGTATTTGCG (site CCACTCCCTGT) | 0
50 | ATTGCACCATGGACCGGTTTTCCCGGTAATCCGTATTTGGT (site ATTGCACCTAC) | 0.00574

Row | Sequence | recombinant UMI read abundance (log10)
51 | ATTGCCACATGGACCGGTTTTCCCGGTAATCCGTATTTGCC (site ATTGCCACTGG) | 1.95
52 | ATTGTAACATGGACCGGTTTTCCCGGTAATCCGTATTTGAG (site ATTGTAACTCT) | 0.94
53 | ATTGTATCATGGACCGGTTTTCCCGGTAATCCGTATTTGTC (site ATTGTATCTGA) | 1.56
54 | ATTGTGACATGGACCGGTTTTCCCGGTAATCCGTATTTGCT (site ATTGTGACTAG) | 2.98
55 | ATTTCAACATGGACCGGTTTTCCCGGTAATCCGTATTTGAC (site ATTTCAACTGT) | 0.461
56 | ATTTCCACATGGACCGGTTTTCCCGGTAATCCGTATTTGTC (site ATTTCCACTGA) | 0.636
57 | ATTTGGGCATGGACCGGTTTTCCCGGTAATCCGTATTTGGG (site ATTTGGGCTCC) | 0.0319
58 | CAAAATCCATGGACCGGTTTTCCCGGTAATCCGTATTTGTA (site CAAAATCCTTA) | 1.8
59 | CAAAGGGCATGGACCGGTTTTCCCGGTAATCCGTATTTGTA (site CAAAGGGCTTA) | 2.57
60 | CAAAGTCCATGGACCGGTTTTCCCGGTAATCCGTATTTGTA (site AAAAGTCCTTA) | 0.474
61 | CAAAGTCCATGGACCGGTTTTCCCGGTAATCCGTATTTGTA (site CAAAGTCCTTA) | 2.04
62 | CAAAGTCCATGGACCGGTTTTCCCGGTAATCCGTATTTGTA (site GAAAGTCCTTA) | 0.405
63 | CAAAGTCCATGGACCGGTTTTCCCGGTAATCCGTATTTGTA (site TAAAGTCCTTA) | 0.742
64 | CAAATATCATGGACCGGTTTTCCCGGTAATCCGTATTTGAC (site CAAATATCTGT) | 1.58
65 | CAAATATCATGGACCGGTTTTCCCGGTAATCCGTATTTGAC (site CTAGTATCTGT) | 0.632
66 | CAACATACATGGACCGGTTTTCCCGGTAATCCGTATTTGGG (site CAACATACTCC) | 0.887
67 | CAACTCTCATGGACCGGTTTTCCCGGTAATCCGTATTTGGT (site CAACTCTCTAC) | 2.56
68 | CAACTGACATGGACCGGTTTTCCCGGTAATCCGTATTTGCA (site CAACTGACTTG) | 2.73
69 | CAACTTCCATGGACCGGTTTTCCCGGTAATCCGTATTTGTT (site CAACTTCCTAA) | 1.5
70 | CAAGAAGCATGGACCGGTTTTCCCGGTAATCCGTATTTGCT (site CAAGAAGCTAG) | 1.55
71 | CAAGAAGCATGGACCGGTTTTCCCGGTAATCCGTATTTGCT (site CAAGCAGCTAG) | 0
72 | CAAGAAGCATGGACCGGTTTTCCCGGTAATCCGTATTTGCT (site CAAGGAGCTAG) | 1.87
73 | CAAGAAGCATGGACCGGTTTTCCCGGTAATCCGTATTTGCT (site CAAGTAGCTAG) | 1.17
74 | CAAGAGTCATGGACCGGTTTTCCCGGTAATCCGTATTTGGT (site CAAGAGTCTAC) | 2.79
75 | CAAGATTCATGGACCGGTTTTCCCGGTAATCCGTATTTGGG (site CAAGATTCTCC) | 0.89
